This note sets out measurements from patent US9573913B2, “Cathepsin cysteine protease inhibitors” (Merck Sharp & Dohme Corp., priority 2013, dated 2017).

One assay deals with human cathepsin K (UniProt P43236). The assay is described as follows: Cathepsin K Assay (hrbCat K). It counts as biochemical. As to conditions: Z-Leu-Arg-AMC substrate, pH 5.5, 15 min preincubation; read-out: hrbCat K (IP (nM)). Put shortly:
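Human cathepsin K (0.4 nM) was preincubated 15 min at room temperature with compound in 50 mM MES pH 5.5, 2.5 mM EDTA, 2.5 mM DTT and 10% DMSO. Inhibition was fitted to a dose-response model.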

The target of the next assay is T1, human cathepsin F (Homo sapiens, UniProt Q9UBX1).
T1 sequence (Q9UBX1 271-484): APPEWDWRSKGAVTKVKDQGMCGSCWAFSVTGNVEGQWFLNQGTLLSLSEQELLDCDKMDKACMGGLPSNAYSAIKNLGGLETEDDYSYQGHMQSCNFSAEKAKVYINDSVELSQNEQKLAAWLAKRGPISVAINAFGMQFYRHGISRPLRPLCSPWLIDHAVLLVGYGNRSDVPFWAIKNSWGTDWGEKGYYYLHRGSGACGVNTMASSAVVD
The assay is described as follows: Cathepsin F assay (hCat F). In kind it is biochemical. As to conditions: Z-Phe-Arg-AMC substrate, pH 5.5, 15 min preincubation; read-out: hCat F (IP (nM)). The method in brief: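 AMC release from Z-Phe-Arg-AMC, added at 8 μM, was monitored fluorometrically (360/460 nm) for 20 min after 10 nM enzyme and compound had been preincubated 15 min at room temperature. Buffer: MES 50 mM pH 5.5, EDTA and DTT 2.5 mM each, 10% DMSO. Compound DMSO dilutions spanned 500–0.025 μM (3-fold). Dose-response fitting gave % inhibition.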

Take `COc1cccc(-c2nc([C@@H]3CCCC[C@H]3C(=O)NC3(C#N)CC3)c(-c3ccc(N4CCS(=O)(=O)CC4)cc3)s2)c1` [Example 56, (1R,2R)-N-(1-cyanocyclopropyl)-2-(5-(4-(1,1-dioxidothiomorpho-lino)phenyl)-2-(3-methoxyphenyl)thi-azol-4-yl)cyclohexane-carboxamide]: the IC50 at human cathepsin K came out at 1.8 nM; at human cathepsin F, 821 nM.

In the case of `N#CC1(NC(=O)[C@@H]2CCCC[C@H]2c2nc(-c3cc(F)cc(F)c3)sc2-c2ccc(N3CCS(=O)(=O)CC3)cc2)CC1` [Example 57, (1R,2R)-N-(1-cyanocyclopropyl)-2-(2-(3,5-difluorophenyl)-5-(4-(1,1-dioxidothiomorpho-lino)phenyl)thiazol-4-yl)cyclohexane-carboxamide], the results for the IC50 on human cathepsin K and at human cathepsin F were 1.5 nM and 650 nM, respectively.

In the case of `N#CC1(NC(=O)[C@@H]2CCCC[C@H]2c2nc(-c3ccc(F)c(F)c3)sc2-c2ccc(N3CCS(=O)(=O)CC3)cc2)CC1` [Example 58, (1R,2R)-N-(1-cyanocyclopropyl)-2-(2-(3,4-difluorophenyl)-5-(4-(1,1-dioxidothiomorpho-lino)phenyl)thiazol-4-yl)cyclohexane-carboxamide], the IC50 on human cathepsin K is 1.7 nM; on human cathepsin F it was 815 nM.

Turning to `COc1cnc(-c2nc([C@@H]3CCCC[C@H]3C(=O)NC3(C#N)CC3)c(-c3ccc(N4CCS(=O)(=O)CC4)cc3)s2)c(OC)c1` [Example 59, (1R,2R)-N-(1-cyanocyclopropyl)-2-(2-(3,5-dimethoxypyridin-2-yl)-5-(4-(1,1-dioxidothiomorpho-lino)phenyl)thiazol-4-yl)cyclohexane-carboxamide], the figures for the IC50 on human cathepsin K and at human cathepsin F were 45.1 nM and at least 10000 nM, respectively.

Consider `COc1cnc(-c2nc([C@@H]3CCCC[C@H]3C(=O)NC3(C#N)CC3)c(-c3ccc(N4CCS(=O)(=O)CC4)cc3)s2)c(F)c1` [Example 60, (1R,2R)-N-(1-cyanocyclopropyl)-2-(5-(4-(1,1-dioxidothiomorpho-lino)phenyl)-2-(3-fluoro-5-methoxypyridin-2-yl)thiazol-4-yl)cyclohexane-carboxamide], for which the figures for the IC50 at human cathepsin K and at human cathepsin F were 5.1 nM and 7910 nM, respectively.

`N#Cc1cc(F)ccc1-c1nc([C@@H]2CCCC[C@H]2C(=O)NC2(C#N)CC2)c(-c2ccc(N3CCS(=O)(=O)CC3)cc2)s1` [Example 61, (1R,2R)-2-(2-(2-cyano-4-fluorophenyl)-5-(4-(1,1-dioxidothiomorpho-lino)phenyl)thiazol-4-yl)-N-(1-cyanocyclopropyl) cyclohexanecarbox-amide]: the IC50 on human cathepsin K was found to be 5.9 nM; on human cathepsin F it was 7650 nM.

For the compound `N#CC1(NC(=O)[C@@H]2CCCC[C@H]2c2nc(-c3cccc(F)c3F)sc2-c2ccc(N3CCS(=O)(=O)CC3)cc2)CC1` [Example 62, (1R,2R)-N-(1-cyanocyclopropyl)-2-(2-(2,3-difluorophenyl)-5-(4-(1,1-dioxidothiomorpho-lino)phenyl)thiazol-4-yl)cyclohexane-carboxamide], the IC50 at human cathepsin K was determined as 2.1 nM; on human cathepsin F, 1000 nM.

In the case of `N#CC1(NC(=O)[C@@H]2CCCC[C@H]2c2nc(-c3cccc(F)c3)sc2-c2ccc(N3CCS(=O)(=O)CC3)cc2)CC1` [Example 64, (1R,2R)-N-(1-cyanocyclopropyl)-2-(5-(4-(1,1-dioxidothiomorpho-lino)phenyl)-2-(3-fluorophenyl)thiazol-4-yl)cyclohexane-carboxamide], the IC50 amounted to 1.4 nM on human cathepsin K and 1330 nM on human cathepsin F.

With `N#CC1(NC(=O)[C@@H]2CCCC[C@H]2c2nc(-c3ncc(F)cc3F)sc2-c2ccc(N3CCS(=O)(=O)CC3)cc2)CC1` [Example 65, (1R,2R)-N-(1-cyanocyclopropyl)-2-(2-(3,5-difluoropyridin-2-yl)-5-(4-(1,1-dioxidothiomorpho-lino)phenyl)thiazol-4-yl)cyclohexane-carboxamide], the values for the IC50 at human cathepsin K and on human cathepsin F were 7 nM and 1000 nM, respectively.

In the case of `N#Cc1cccc(-c2nc([C@@H]3CCCC[C@H]3C(=O)NC3(C#N)CC3)c(-c3ccc(N4CCS(=O)(=O)CC4)cc3)s2)c1` [Example 66, (1R,2R)-N-(1-cyanocyclopropyl)-2-(2-(3-cyanophenyl)-5-(4-(1,1-dioxidothiomorpho-lino)phenyl)thiazol-4-yl)cyclohexane-carboxamide], the IC50 on human cathepsin K is 2 nM; at human cathepsin F, 1410 nM.

With `Cc1ccc(-c2nc([C@@H]3CCCC[C@H]3C(=O)NC3(C#N)CC3)c(-c3ccc(N4CCS(=O)(=O)CC4)cc3)s2)c(C#N)c1` [Example 67, (1R,2R)-2-(2-(2-cyano-4-methylphenyl)-5-(4-(1,1-dioxidothiomorpho-lino)phenyl)thiazol-4-yl)-N-(1-cyanocyclopropyl) cyclohexanecarbox-amide], the IC50 on human cathepsin K is 5.8 nM; on human cathepsin F, at least 10000 nM.

For the compound `N#CC1(NC(=O)[C@@H]2C[C@@H](F)CC[C@H]2c2nc(-c3cncc(Cl)c3)sc2-c2ccc(N3CCS(=O)(=O)CC3)cc2)CC1` [Example 68, (1R,2R,5S)-2-(2-(5-chloropyridin-3-yl)-5-(4-(1,1-dioxidothiomorpho-lino)phenyl)thiazol-4-yl)-N-(1-cyanocyclopropyl)-5-fluorocyclohexane-carboxamide], the IC50 is 1.7 nM on human cathepsin K and 2310 nM at human cathepsin F.

As for `N#CC1(NC(=O)[C@@H]2C[C@@H](F)CC[C@H]2c2nc(-c3ccc(F)cn3)sc2-c2ccc(N3CCS(=O)(=O)CC3)cc2)CC1` [Example 69, (1R,2R,5S)-N-(1-cyanocyclopropyl)-2-(5-(4-(1,1-dioxidothiomorpho-lino)phenyl)-2-(5-fluoropyridin-2-yl)thiazol-4-yl)-5-fluorocyclohexane-carboxamide], the IC50 at human cathepsin K turned out to be 1.2 nM; on human cathepsin F, 2600 nM.

With `N#CC1(NC(=O)[C@@H]2CCCC[C@H]2c2nc(-c3ncccn3)sc2-c2ccc(N3CCS(=O)(=O)CC3)cc2)CC1` [Example 70, (1R,2R)-N-(1-cyanocyclopropyl)-2-(5-(4-(1,1-dioxidothiomorpho-lino)phenyl)-2-(pyrimidin-2-yl)thiazol-4-yl)cyclohexane-carboxamide], the results for the IC50 on human cathepsin K and at human cathepsin F were 27.1 nM and at least 10000 nM, respectively.

On to `N#CC1(NC(=O)[C@@H]2CCCC[C@H]2c2nc(-c3cnc(N)nc3)sc2-c2ccc(N3CCS(=O)(=O)CC3)cc2)CC1` [Example 71, (1R,2R)-2-(2-(2-aminopyrimidin-5-yl)-5-(4-(1,1-dioxidothiomorpho-lino)phenyl)thiazol-4-yl)-N-(1-cyanocyclopropyl) cyclohexanecarbox-amide], for which the results for the IC50 at human cathepsin K and at human cathepsin F were 2.3 nM and 2320 nM, respectively.

As to `N#CC1(NC(=O)[C@@H]2CCCC[C@H]2c2nc(-c3cccnc3)sc2-c2ccc(N3CCS(=O)(=O)C4(CC4)C3)cc2)CC1` [Example 72, (1R,2R)-N-(1-cyanocyclopropyl)-2-(5-(4-(4,4-dioxido-4-thia-7-azaspiro[2.5]octan-7-yl)phenyl)-2-(pyridin-3-yl)thiazol-4-yl)cyclohexane-carboxamide], the IC50 at human cathepsin K worked out at 2.3 nM; on human cathepsin F it was 2150 nM.

With `CS(=O)(=O)C1CN(c2ccc(-c3sc(-c4cccnc4)nc3[C@@H]3CCCC[C@H]3C(=O)NC3(C#N)CC3)cc2)C1` [Example 73, (1R,2R)-N-(1-cyanocyclopropyl)-2-(5-(4-(3-(methylsulfonyl)azetidin-1-yl)phenyl)-2-(pyridin-3-yl)thiazol-4-yl)cyclohexane-carboxamide], the IC50 came out at 2.2 nM on human cathepsin K and 1200 nM at human cathepsin F.

Regarding `N#CC1(NC(=O)[C@@H]2CCCC[C@H]2c2nc(-c3cncc(F)c3)sc2-c2ccc(N3CCS(=O)(=O)C4(CC4)C3)cc2)CC1` [Example 74, (1R,2R)-N-(1-cyanocyclopropyl)-2-(5-(4-(4,4-dioxido-4-thia-7-azaspiro[2.5]octan-7-yl)phenyl)-2-(5-fluoropyridin-3-yl)thiazol-4-yl)cyclohexane-carboxamide], the results for the IC50 on human cathepsin K and at human cathepsin F were 1.9 nM and 1370 nM, respectively.

Take `CS(=O)(=O)C1CN(c2ccc(-c3sc(-c4cncc(F)c4)nc3[C@@H]3CCCC[C@H]3C(=O)NC3(C#N)CC3)cc2)C1` [Example 75, (1R,2R)-N-(1-cyanocyclopropyl)-2-(2-(5-fluoropyridin-3-yl)-5-(4-(3-(methylsulfonyl)azetidin-1-yl)phenyl)thiazol-4-yl)cyclohexane-carboxamide]: the IC50 at human cathepsin K came out at 1.5 nM; on human cathepsin F it was 867 nM.

For `N#CC1(NC(=O)[C@@H]2CCCC[C@H]2c2nc(-c3cncc(Cl)c3)sc2-c2ccc(N3CCS(=O)(=O)C4(CC4)C3)cc2)CC1` [Example 76, (1R,2R)-2-(2-(5-chloropyridin-3-yl)-5-(4-(4,4-dioxido-4-thia-7-azaspiro[2.5]octan-7-yl)phenyl)thiazol-4-yl)-N-(1-cyanocyclopropyl) cyclohexanecarbox-amide], the IC50 is 1.8 nM on human cathepsin K and 1000 nM at human cathepsin F.

As to `Cc1ncc(-c2nc([C@@H]3CCCC[C@H]3C(=O)NC3(C#N)CC3)c(-c3ccc(N4CCS(=O)(=O)CC4)cc3)s2)cn1` [Example 77, (1R,2R)-N-(1-cyanocyclopropyl)-2-(5-(4-(1,1-dioxidothiomorpho-lino)phenyl)-2-(2-methylpyrimidin-5-yl)thiazol-4-yl)cyclohexane-carboxamide], the IC50 at human cathepsin K turned out to be 1.6 nM; on human cathepsin F it was 1870 nM.
